Laboratory results as given in ChEMBL document CHEMBL5338705, “Discovery of 1,3,4-oxadiazole derivatives containing a bisamide moiety as a novel class of potential cardioprotective agents” (Eur J Med Chem, 2022).
Calls of active or inactive are those of the source. The rule behind the calls is not given here.

Assays:
H9c2 [1] = test: Cytoprotective activity against H2O2-induced oxidative damage in rat H9c2 cells assessed as cell viability at 20 uM preincubated for 24 hrs followed by H2O2 treatment for another 1.5 hrs by MTT assay (reference value: 32.52 to 44.40%); format: functional; conditions: time 25.5 hrs, read-out: Activity
H9c2 [2] = test: Cytoprotective activity against H2O2-induced oxidative damage in rat H9c2 cells assessed as fold reduction in cell viability at 20 uM preincubated for 24 hrs followed by H2O2 treatment for another 1.5 hrs by MTT assay; format: functional; conditions: time 25.5 hrs
H9c2 [3] = test: Downregulation of H2O2 induced ANP level in rat H9c2 cells at 80 uM measured after 1.5 hrs by qRT-PCR analysis; format: functional, cell-based
H9c2 [4] = test: Cytoprotective activity against H2O2-induced oxidative damage in rat H9c2 cells assessed as cell viability at 80 uM preincubated for 24 hrs followed by H2O2 treatment for another 1.5 hrs by MTT assay; format: functional, cell-based; conditions: time 25.5 hrs
H9c2 [5] = test: Protection against H2O2-induced cell damage in rat H9c2 cells assessed as recovery of cell shrinkage at 100 uM; format: functional, cell-based
H9c2 [6] = test: Protection against H2O2-induced cell damage in rat H9c2 cells assessed as recovery of cell death at 100 uM; format: functional, cell-based
H9c2 [7] = test: Downregulation of H2O2 induced BNP level in rat H9c2 cells at 80 uM measured after 1.5 hrs by qRT-PCR analysis; format: functional, cell-based
H9c2 [8] = test: Antioxidant activity in H2O2-induced oxidative stress in rat H9c2 cells assessed as increase in expression of Nrf2 level at 80 uM measured after 1.5 hrs by Western blotting analysis; format: functional, cell-based
H9c2 [9] = test: Antioxidant activity in H2O2-induced oxidative stress in rat H9c2 cells assessed as increase in expression of NQO1 level at 80 uM measured after 1.5 hrs by Western blotting analysis; format: functional, cell-based
H9c2 [10] = test: Anti-apoptotic activity in H202 induced rat H9c2 cells assessed as decrease in Bcl2 level at 80 uM measured after 1.5 hrs by Western blot analysis; format: functional, cell-based
H9c2 [11] = test: Anti-apoptotic activity in H202 induced rat H9c2 cells assessed as increase in Bax level at 80 uM measured after 1.5 hrs by Western blot analysis; format: functional, cell-based
H9c2 [12] = test: Anti-apoptotic activity in H202 induced rat H9c2 cells assessed as increase in caspase 3 level at 80 uM measured after 1.5 hrs by Western blot analysis; format: functional, cell-based
H9c2 [13] = test: Anti-apoptotic activity in H202 induced rat H9c2 cells assessed as increase in caspase 9 level at 80 uM measured after 1.5 hrs by Western blot analysis; format: functional, cell-based
H9c2 [14] = test: Cytotoxicity against rat H9c2 cells at 10 to 100 uM measured after 48 to 72 hrs by MTT assay; format: toxicity, cell-based; conditions: h9c2, 100 µM, dose lower 10 µM, time lower 48 hrs, dose upper 100 µM, time upper 72 hrs
H9c2 [15] = test: Cytoprotective activity against H2O2-induced oxidative damage in rat H9c2 cells assessed as cell viability preincubated for 24 hrs followed by H2O2 treatment for another 1.5 hrs by MTT assay; format: functional, cell-based; conditions: dose 0-80 µM, time 25.5 hrs
H9c2 [16] = test: Cytoprotective activity against H2O2-induced oxidative damage in rat H9c2 cells assessed as reduction in cell viability at 100 uM incubated for 24 hrs followed by low concentration of H2O2 treatment and measured after 24 hrs by MTT assay relative to control; format: functional; conditions: time 48 hrs
H9c2 [17] = test: Downregulation of H2O2 induced ANP level in rat H9c2 cells measured after 1.5 hrs by qRT-PCR analysis; format: functional, cell-based; conditions: dose <= 80.0 µM
H9c2 [18] = test: Downregulation of H2O2 induced BNP level in rat H9c2 cells measured after 1.5 hrs by qRT-PCR analysis; format: functional, cell-based; conditions: dose <= 80.0 µM
H9c2 [19] = test: Anti-apoptotic activity in H202 induced rat H9c2 cells assessed as decrease in Bcl2 level at 20 to 80 uM measured after 1.5 hrs by Western blot analysis; format: functional, cell-based; conditions: dose 20-80 µM
H9c2 [20] = test: Anti-apoptotic activity in H202 induced rat H9c2 cells assessed as increase in Bax level at 20 to 80 uM measured after 1.5 hrs by Western blot analysis; format: functional, cell-based; conditions: dose 20-80 µM
H9c2 [21] = test: Anti-apoptotic activity in H202 induced rat H9c2 cells assessed as increase in caspase 3 level at 20 to 80 uM measured after 1.5 hrs by Western blot analysis; format: functional, cell-based; conditions: dose 20-80 µM
H9c2 [22] = test: Anti-apoptotic activity in H202 induced rat H9c2 cells assessed as increase in caspase 9 level at 20 to 80 uM measured after 1.5 hrs by Western blot analysis; format: functional, cell-based; conditions: dose 20-80 µM
H9c2 [23] = test: Antioxidant activity in H2O2-induced oxidative stress in rat H9c2 cells assessed as increase in expression of Nrf2 level at upto 80 uM measured after 1.5 hrs by Western blotting analysis; format: functional, cell-based
H9c2 [24] = test: Antioxidant activity in H2O2-induced oxidative stress in rat H9c2 cells assessed as increase in expression of NQO1 level at upto 80 uM measured after 1.5 hrs by Western blotting analysis; format: functional, cell-based

Row | Compound | viability at 20 µM (H9c2 [1]) | fold change (FC) (H9c2 [2]) | other results
1 | O=C(CSc1nnc(-c2ccccc2)o1)Nc1ccccc1 | 46.6% | 1.09 | –
2 | O=C(CSc1nnc(-c2ccccc2Cl)o1)NC(=O)Nc1ccccn1 | 42.6% | 0.96 | –
3 | COc1ccc(NC(=O)NC(=O)CSc2nnc(-c3ccc(O)cc3)o2)cc1 | 60.5% | 1.68 | –
4 | O=C(CSc1nnc(-c2ccccc2Cl)o1)NC(=O)Nc1ccccc1 | 40.9% | 0.98 | –
5 | O=C(CSc1nnc(-c2ccc(O)cc2)o1)NC(=O)NN1CCCCC1 | 29.2% | 0.74 | –
6 | Cc1ccc(NC(=O)NC(=O)CSc2nnc(-c3ccccc3)o2)cc1 | 54.8% | 1.67 | –
7 | O=C(CSc1nnc(-c2ccccn2)o1)NC(=O)Nc1ccccc1 | 35.5% | 0.85 | –
8 | COc1ccc(NC(=O)CSc2nnc(-c3ccc(O)cc3)o2)cc1 | 42.9% | 1 | –
9 | O=C(CSc1nnc(-c2ccc(O)cc2)o1)NC(=O)Nc1ccccc1 | 71.7% | 1.71 | –
10 | COc1cc(NC(=O)NC(=O)CSc2nnc(-c3ccccc3)o2)cc(OC)c1OC | 43% | 1.3 | –
11 | O=C(CSc1nnc(-c2ccc(Cl)cc2)o1)NC(=O)Nc1ccccc1 | 51.5% | 1.23 | –
12 | COc1cccc(NC(=O)NC(=O)CSc2nnc(-c3ccccc3)o2)c1 | 22.6% | 0.69 | Activity (H9c2 [3]): inactive; Activity (H9c2 [4]): inactive; Activity (H9c2 [5]): inactive; Activity (H9c2 [6]): inactive; Activity (H9c2 [7]): inactive; Activity (H9c2 [8]): inactive; Activity (H9c2 [9]): inactive; Activity (H9c2 [10]): inactive; Activity (H9c2 [11]): inactive; Activity (H9c2 [12]): inactive; Activity (H9c2 [13]): inactive
13 | Cc1cccc(-c2nnc(SCC(=O)NC(=O)Nc3ccccn3)o2)c1 | 53.5% | 1.21 | –
14 | O=C(CSc1nnc(-c2ccncc2)o1)NC(=O)Nc1ccccn1 | 45.3% | 1.02 | –
15 | COCCCNC(=O)NC(=O)CSc1nnc(-c2ccc(O)cc2)o1 | 69.5% | 1.76 | –
16 | O=C(CSc1nnc(-c2ccc(O)cc2)o1)NC(=O)NN1CCOCC1 | 44.2% | 1.12 | –
17 | O=C(CSc1nnc(-c2ccccc2)o1)Nc1ccccn1 | 41.4% | 0.97 | –
18 | O=C(CSC(=S)N1CCNCC1)NC(=O)Nc1ccccc1 | 41.1% | 1.03 | –
19 | O=C(CSc1nnc(-c2ccccc2)o1)NC(=O)Nc1ccccn1 | 72.5% | 1.79 | –
20 | O=C(CSc1nnc(-c2cccc(Cl)c2)o1)NC(=O)Nc1ccccn1 | 48.4% | 1.09 | –
21 | O=C(CSc1nnc(-c2cccnc2)o1)NC(=O)Nc1ccccc1 | 39.2% | 0.93 | –
22 | O=C(CSc1nnc(-c2ccccc2)o1)NC(=O)Nc1cccc(Cl)c1 | 34% | 1.03 | –
23 | COc1ccc(NC(=O)NC(=O)CSc2nnc(-c3ccccc3)[nH]2)cc1 | 64.4% | 1.69 | –
24 | O=C(CSc1nnc(-c2ccc(O)cc2)o1)NC(=O)Nc1cccnc1 | 64.8% | 1.64 | –
25 | COc1ccc(NC(=O)NC(=O)CSc2nnc(-c3ccccc3)o2)cc1 | 88.4% | 2.69 | Activity (H9c2 [14]): Non-Toxic; Activity (H9c2 [15]): Dose-Dependent Effect; Activity (H9c2 [16]): 48%; Activity (H9c2 [5]): Active; Activity (H9c2 [6]): Active; Activity (H9c2 [17]): Dose-Dependent Effect; Activity (H9c2 [18]): Dose-Dependent Effect; Activity (H9c2 [19]): Active; Activity (H9c2 [20]): Active; Activity (H9c2 [21]): Active; Activity (H9c2 [22]): Active; Activity (H9c2 [23]): Active; Activity (H9c2 [24]): Active

Row | Compound | viability at 20 µM (H9c2 [1]) | fold change (FC) (H9c2 [2]) | other results
26 | O=C(CSc1nnc(-c2cccnc2)o1)NC(=O)Nc1ccccn1 | 40.5% | 0.91 | –
27 | Cc1ccccc1-c1nnc(SCC(=O)NC(=O)Nc2ccccc2)o1 | 56% | 1.34 | –
28 | O=C(CSc1nnc(-c2ccccc2O)o1)NC(=O)Nc1ccccc1 | 60.7% | 1.45 | –
29 | Cc1ccc(-c2nnc(SCC(=O)NC(=O)Nc3ccccn3)o2)cc1 | 70.9% | 1.6 | –
30 | O=C(CSc1nnc(-c2ccccc2)o1)NC(=O)Nc1ccc(Cl)cc1 | 37.6% | 1.14 | –
31 | Cc1ccc(-c2nnc(SCC(=O)NC(=O)Nc3ccccc3)o2)cc1 | 57.7% | 1.38 | –
32 | O=C(CSc1nnc(-c2ccccn2)o1)NC(=O)Nc1ccccn1 | 54% | 1.22 | –
33 | O=C(CSc1nnc(-c2ccc(O)cc2)o1)NC(=O)Nc1ncccn1 | 59.1% | 1.49 | –
34 | COc1ccc(NC(=O)CSc2nnc(-c3ccccc3)o2)cc1 | 52.6% | 1.46 | –
35 | Cc1cccc(-c2nnc(SCC(=O)NC(=O)Nc3ccccc3)o2)c1 | 46.7% | 1.11 | –
36 | O=C(CSc1nnc(-c2ccc(O)cc2)o1)Nc1ccccn1 | 55.3% | 1.54 | –
37 | O=C(CSc1nnc(-c2ccccc2)o1)NC(=O)Nc1ccccc1Cl | 34.5% | 1.05 | –
38 | O=C(Cn1cc(CSc2nnc(-c3ccc(O)cc3)o2)nn1)NC(=O)Nc1ccccn1 | 18.7% | 0.52 | –
39 | COc1ccccc1NC(=O)NC(=O)CSc1nnc(-c2ccccc2)o1 | 47% | 1.43 | –
40 | O=C(CSc1nnc(-c2ccc(Cl)cc2)o1)NC(=O)Nc1ccccn1 | 54.9% | 1.24 | –
41 | COc1ccc(NC(=O)NC(=O)Cn2cc(CSc3nnc(-c4ccccc4)o3)nn2)cc1 | 18.4% | 0.51 | –
42 | O=C(CSc1nnc(-c2ccc(O)cc2)o1)NC(=O)Nc1ccccn1 | 85.2% | 1.92 | –
43 | O=C(CSc1nnc(-c2cccc(Cl)c2)o1)NC(=O)Nc1ccccc1 | 42.5% | 1.01 | –
44 | O=C(CSc1nnc(-c2ccccc2)o1)NC(=O)Nc1ccccc1 | 52.9% | 1.32 | –
45 | O=C(CSc1nnc(-c2ccc(O)cc2)o1)NC(=O)Nc1nccs1 | 36.8% | 0.93 | –
46 | CC(C)c1ccc(NC(=O)NC(=O)CSc2nnc(-c3ccccc3)o2)cc1 | 38.9% | 1.18 | –
47 | Cc1ccccc1-c1nnc(SCC(=O)NC(=O)Nc2ccccn2)o1 | 66.5% | 1.5 | –
48 | O=C(CSc1nnc(-c2ccncc2)o1)NC(=O)Nc1ccccc1 | 48.5% | 1.16 | –
49 | O=C(CSc1nnc(-c2ccccc2O)o1)NC(=O)Nc1ccccn1 | 65.7% | 1.48 | –
